Literature values as cited in patent US9993445B1, “Oral solution comprising atomoxetine hydrochloride and methods thereof” (TAHO Pharmaceuticals Ltd., priority 2016, dated 2018).
Counter-ions that a name gives are not always drawn.

Conditions: room temperature

Structure (SMILES): CNCCC(Oc1ccccc1C)c1ccccc1 (single isomer, unassigned; (-)) [Atomoxetine hydrochloride, (−)-N-methyl-3-phenyl-3 (o-tolyloxy) propylamine]
- soluble in water: 27.8 mg/mL
